Peptide text beside a SMILES is read from it. * marks the point of attachment. Cbz = O=C(OCc1ccccc1)*
Key:
[1] = test system: p21-Rluc fusion protein; experiment: High throughput p21 degradation assay (p21-Rluc reporter, cycloheximide); type: cell-based, human; conditions: MG132 25 μM, set at 100% stabilization
[2] = test system: endogenous p21 protein; experiment: p21 ELISA of endogenous p21 protein; type: cell-based; conditions: dose-response, normalized to DMSO, FIG. 10B
Excerpt: Luciferase values are normalized to the control DMSO (set to 1). […] ELISA values are normalized to the control DMSO.
The p21-Rluc degradation assay was next transposed to a HTS-compatible format in 384-well plates and used to screen the Institut de Recherche en Immunologie et Cancerologie's (IRIC's) collection of 112,900 compounds (FIG. 6) derived from the Chembridge DIVERset™ screening library, the Maybridge Hitfinder™ screening library, the Specs screening library, the Microsource […]™ collection, the Biomol/Enzo Life Sciences Screen-Well™ library, the Prestwick Chemical Library™ library and the Sigma LOPAC^1280™. The potent proteasome inhibitor MG-132 was used as positive control. The mean increase of p21-Rluc signal by all positive controls across the screen was 3.062 (FIG. 6). This value was set at 100% stabilization and used as comparison reference for test compounds. From the primary screen, 686 compounds that increase the p21-Rluc luminescence signal by at least 1.7-fold and 4 SDs above baseline (DMSO control) were identified (FIG. 5). These compounds were re-tested in a reconfirmation experiment using the same assay conditions. […] Confirmed hits were then tested in a secondary assay using Rluc alone to eliminate compounds that increase luciferase enzymatic activity or boost the luminescence signal. […]

CC(C)C[C@@H](C=O)NC(=O)[C@H](CC(C)C)NC(=O)[C@H](CC(C)C)NC(=O)OCc1ccccc1 [MG-132] (Cbz-Leu-Leu-Leu-aldehyde)
mean increase of p21-Rluc signal by all positive controls across the screen [1]: 3.062 | intracellular expression of endogenous p21 protein (ELISA) [2]: increase in the intracellular expression of the endogenous protein

Reference: patent publication US9429566B2, “Assay for inhibitors of CIP/KIP protein degradation” (UNIVERSITE DE MONTREAL, priority 2011, dated 2016)
